Source: PMC6337650 (Molecules, 2018)

Columns and labels:
[1] = tested on: BEL-7402 cells; experiment: MTT antiproliferative assay, BEL-7402; assay type: cell-based, human; settings: Homo sapiens, Bel-7402, 48 h, MTT, mean ± SD, n=3; for inhibition at 100 µM: read-out: % Growth Inhibition at 100 μM BEL-7402
Experimental: (§1) The antiproliferative activity of the target compounds against a normal L02 cell line and the three different human cancer cell lines viz. colorectal (HCT-116), liver (BEL-7402) and liver (HepG2) were evaluated using a standard MTT-based colorimetric assay. All cell lines were obtained from the Key Laboratory of Natural Resources and Functional Molecules of the Changbai Mountain (Yanbian University, Jilin, China) and maintained in Dulbecco’s modified Eagle’s medium (DMEM) and RPMI Media 1640 (RPMI1640), supplemented with 10% fetal bovine serum (FBS) at 37 °C in a humidified atmosphere containing 5% CO2.
(§2) Cells were plated in 96-well plates at appropriate densities to ensure exponential growth throughout the experimental period (9 × 10^3 cells per well) and then allowed to adhere for 24 h. Cells were then treated for 48 h with four serial concentrations (1, 10, 50 and 100 µM) of each compound. 5-fluorouracil (5-FU) was used as a positive control. After 48 h of incubation, 10 µL of MTT solution was added to each well to a final concentration of 2 mg/mL. Plates were then incubated for a further 4 h. After incubation, the MTT solution was removed and 150 µL of DMSO was added to each well for coloration. The plates were shaken vigorously for 10 min at room temperature to ensure complete solubilization. The optical density (OD) was read on a microplate reader (ELx800, BioTek, Highland Park, Winooski, VT, USA) at a wavelength of 492 nm and the data were subsequently analyzed. The percentage of cell growth inhibition was calculated from the following equation: Inhibitory rate (%) = [(1 − (ODtreated-ODblank)/(ODcontrol-ODblank)] × 100.(1)

[2] = tested on: HepG2 cells; experiment: MTT antiproliferative assay, HepG2; assay type: cell-based, human; settings: Homo sapiens, HepG2, 48 h, MTT, mean ± SD, n=3; for inhibition at 100 µM: read-out: % Growth Inhibition at 100 μM HepG2
Experimental: as §1, §2

[3] = tested on: HCT-116 cells; experiment: MTT antiproliferative assay, HCT-116; assay type: cell-based, human; settings: Homo sapiens, HCT-116, 48 h, MTT, mean ± SD, n=3; for inhibition at 100 µM: read-out: % Growth Inhibition at 100 μM HCT-116
Experimental: as §1, §2

Row | SMILES | IC50 [1] | IC50 [2] | IC50 [3] | inhibition at 100 µM [1] | melting point | inhibition at 100 µM [2] | inhibition at 100 µM [3]
1 | O=c1[nH]cc(F)c(=O)[nH]1 [5-FU, 5-fluorouracil, reference compound] | 21.3 ± 2.43 µM | 23.4 ± 0.37 µM | 24.8 ± 2.08 µM |  |  |  | 
2 | C[C@@]12CC[C@@H]3[C@@](CC[C@H]4[C@@]3(C)CCC[C@@]4(C)C(=O)NCCN3CCCC3)(CC1=O)C2 [Compound 1a, (4R,4aS,6aR,9S,11aR,11bS)-4,9,11b-trimethyl-8-oxo-N-(2-(pyrrolidin-1-yl)ethyl)tetradecahydro-6a,9-methanocyclohepta[a]naphthalene-4-carboxamide] |  |  |  | 87.1 ± 2.37% | 136 to 137 °C | 66 ± 1.33% | 65.2 ± 2.52%
3 | CON(C)C(=O)[C@]1(C)CCC[C@@]2(C)[C@@H]3CC[C@@]4(C)C[C@]3(CC[C@@H]21)CC4=O [Compound 1c, (4R,4aS,6aR,9S,11aR,11bS)-N-methoxy-N,4,9,11b-tetramethyl-8-oxotetradecahydro-6a,9-methanocyclohepta[a]naphthalene-4-carboxamide] |  |  |  | 31.3 ± 1.22% | 144 to 145 °C | < 10% | < 10%
4 | CN1CCN(C(=O)COC(=O)[C@]2(C)CCC[C@@]3(C)[C@@H]4CC[C@@]5(C)C[C@]4(CC[C@@H]32)CC5=O)CC1 [Compound 2a, 2-(4-methylpiperazin-1-yl)-2-oxoethyl(4R,4aS,6aR,9S,11aR,11bS)-4,9,11b-trimethyl-8-oxotetradecahydro-6a,9-methanocyclohepta[a]naphthalene-4-carboxylate] |  |  |  | 65 ± 2.62% | 112 to 113 °C | 40.6 ± 0.7% | 62.1 ± 1.02%
5 | C[C@@]12CC[C@@H]3[C@@](CC[C@H]4[C@@]3(C)CCC[C@@]4(C)C(=O)OCC(=O)N3CCN(c4ccccc4)CC3)(CC1=O)C2 [Compound 2c, 2-oxo-2-(4-phenylpiperazin-1-yl)ethyl(4R,4aS,6aR,9S,11aR,11bS)-4,9,11b-trimethyl-8-oxotetradecahydro-6a,9-methanocyclohepta[a]naphthalene-4-carboxylate] |  |  |  | 40.5 ± 0.87% | 143 to 144 °C | < 10% | 15.7 ± 0.61%
6 | COC(=O)C(NC(=O)C1(C)CCCC2(C)C3CCC4(C)CC3(CCC12)CC4=O)C(C)C [Compound 3c, Methyl((4R,4aS,6aR,9S,11aR,11bS)-4,9,11b-trimethyl-8-oxotetradecahydro-6a,9-methanocyclohepta[a]naphthalene-4-carbonyl)-L-valinate] |  |  |  | 66.6 ± 1.9% |  | 23.9 ± 0.85% | 54.7 ± 0.59%
7 | COC(=O)C(Cc1c[nH]c2ccccc12)NC(=O)C1(C)CCCC2(C)C3CCC4(C)CC3(CCC12)CC4=O [Compound 3d, Methyl((4R,4aS,6aR,9S,11aR,11bS)-4,9,11b-trimethyl-8-oxotetradecahydro-6a,9-methanocyclohepta[a]naphthalene-4-carbonyl)-L-tryptophanate] |  |  |  | 35.8 ± 2.37% | 165 to 166 °C | < 10% | 19.7 ± 1.11%
8 | C[C@@]12CC[C@@H]3[C@@](CC[C@H]4[C@@]3(C)CCC[C@@]4(C)C(=O)OCC(=O)Nc3ccccc3Cl)(CC1=O)C2 [Compound 4b, 2-((2-chlorophenyl)amino)-2-oxoethyl(4R,4aS,6aR,9S,11aR,11bS)-4,9,11b-trimethyl-8-oxotetradecahydro-6a,9-methanocyclohepta[a]naphthalene-4-carboxylate] |  |  |  | < 10% | 107 to 108 °C | < 10% | < 10%
9 | C[C@@]12CC[C@@H]3[C@@](CC[C@H]4[C@@]3(C)CCC[C@@]4(C)C(=O)OCC(=O)Nc3cccc(Cl)c3)(CC1=O)C2 [Compound 4c, 2-((3-chlorophenyl)amino)-2-oxoethyl(4R,4aS,6aR,9S,11aR,11bS)-4,9,11b-trimethyl-8-oxotetradecahydro-6a,9-methanocyclohepta[a]naphthalene-4-carboxylate] |  |  |  | 35.7 ± 2.56% | 120 to 122 °C | < 10% | 62.3 ± 3.55%
